Experimental data published in EP0304063B1, “Quinoline type mevalonolactones” (NISSAN CHEMICAL INDUSTRIES LTD., priority 1987, dated 1989).

System: cholesterol biosynthesis in vivo
Assay: Test C: Inhibition of cholesterol biosynthesis in vivo
Design: species or system Male Sprague-Dawley rats
Settings: oral administration of 0.05 mg/kg, relative to the control group, rats
In the case of `O=C(O)CC(O)CC(O)/C=C/c1c(C2CC2)nc2ccccc2c1-c1ccc(F)cc1` (stereo not drawn) [Compound I-520], the “percent decrease of counts” value is reported as 55%.

Same assay, conditions: oral administration of 10 mg/kg, relative to the control group, rats
With `CC[C@H](C)C(=O)O[C@H]1C[C@H](O)C=C2C=C[C@H](C)[C@H](CC[C@@H](O)C[C@@H](O)CC(=O)O)[C@H]21` [CS-514, reference compound] the “percent decrease of counts” value was 55%.

System: not listed separately
Assay: Test D: Acute toxicity
Settings: mouse, in vivo, po; orally administered 1000 mg/kg, 0.5% CMC suspension, ICR male mice, after seven days
Description: A 0.5% CMC suspension of a test compound was orally administered to ICR male mice (group of three mice). The acute toxicity was determined based on the mortality after seven days. With compound I-57, I-58, I-59, I-511, I-512, I-513, I-514, I-515, I-517 and I-523 of the present invention, the mortality was 0% even when they were orally administered in an amount of 1000 mg/kg.
`Cc1cc(C)cc(-c2c(/C=C/C(O)CC(O)CC(=O)O)c(C(C)C)nc3ccccc23)c1` (stereo not drawn) [Compound I-515] showed a mortality at 168 h of 0%. In the case of `Cc1cc(-c2c(/C=C/C(O)CC(O)CC(=O)O)c(C(C)C)nc3ccccc23)ccc1F` (stereo not drawn) [Compound I-514], the mortality at 168 h is reported as 0%. `CC(C)c1nc2ccccc2c(-c2ccccc2F)c1/C=C/C(O)CC(O)CC(=O)O` (stereo not drawn) [Compound I-57] gave a mortality at 168 h of 0%. With `CC(C)c1nc2ccc(Cl)cc2c(-c2ccccc2Cl)c1/C=C/C(O)CC(O)CC(=O)O` (stereo not drawn) [Compound I-512] the mortality at 168 h was 0%. For `CC(C)c1nc2ccccc2c(-c2ccc(Cl)cc2)c1/C=C/C(O)CC(O)CC(=O)O` (stereo not drawn) [Compound I-59], the mortality at 168 h was 0%. `Cc1ccc(-c2c(/C=C/C(O)CC(O)CC(=O)O)c(C(C)C)nc3ccccc23)cc1` (stereo not drawn) [Compound I-511] gave a mortality at 168 h of 0%. With `CC(C)c1nc2ccccc2c(-c2ccc(C(F)(F)F)cc2)c1/C=C/C(O)CC(O)CC(=O)O` (stereo not drawn) [Compound I-513] the mortality at 168 h was 0%. For `O=C(O)CC(O)CC(O)/C=C/c1c(-c2ccccc2)nc2ccc(Cl)cc2c1-c1ccccc1` (stereo not drawn) [Compound I-523], the mortality at 168 h was 0%. With `Cc1ccc2c(-c3ccccc3)c(/C=C/C(O)CC(O)CC(=O)O)c(C(C)C)nc2c1` (stereo not drawn) [Compound I-58] the mortality at 168 h was 0%. `CCc1nc2ccccc2c(-c2ccc(F)cc2)c1/C=C/C(O)CC(O)CC(=O)O` (stereo not drawn) [Compound I-517] gave a mortality at 168 h of 0%.
